Source: US20110092456A1, “Methods of increasing cAMP levels and uses thereof” (priority 2009, published 2011)

Assays:
cPLA2 = assay: Myocardial cPLA2 activity, mouse; type: in vivo; settings: for cPLA2 activity: mice, 3-day pretreatment, words
Description: (§1) Protocol 1: Mice received 3-day pretreatment with: 1) SIT (300 mg/kg per day); 2) PIO (5 mg/kg per day); 3) SIT+PIO; or water alone (control). Drugs were suspended in water and administered by oral gavage once daily. On the 4th day, mice received intravenous H-89 (20 mg/kg) or vehicle (5% DMSO) (40). One hour after injection, mice underwent coronary artery ligation for 30 minutes followed by 4-hour reperfusion, or mice were euthanized under anesthesia and hearts were explanted without being subjected to ischemia. For immunoblotting and enzyme activity, hearts were rinsed in cold PBS (pH 7.4), containing 0.16 mg/ml heparin to remove red blood cells and clots, frozen in liquid nitrogen and stored at −80° C. for further analyses.
(§2) Myocardial samples of the anterior wall of the left ventricle were homogenized in cold PBS (pH 7.4), and centrifuged. The supernatants were collected and stored on ice. Measurement of 6-Keto-PGF1α, the stable metabolite of prostacyclin, 15dPGJ2, 15-epilipoxinA4, and PLA2 activity were made using immunoassay assay kits. The COX activity assay kit measures the peroxidase activity of COX, assayed colorimetrically by monitoring the appearance of oxidized N,N,N″,N″-tetramethyl-p-phenylenediamaine (TMPD) at 590 nm. Each myocardial sample was tested in triplicate (the first without an inhibitor; the second with DuP-697, a specific COX2 inhibitor; and the third with Sc560, a specific COX1 inhibitor. COX1 activity was calculated as the difference between total COX activity in the sample without an inhibitor and the sample with Sc560, and COX2 activity as the difference between total COX activity in the sample without an inhibitor and the sample with DuP-697.

15-epi-lipoxinA4 = assay: Myocardial 15-epi-lipoxinA4 levels, mouse; type: in vivo
Description: as §1, §2

Protein Kinase A (PKA) = assay: Myocardial PKA activity, mouse; type: in vivo
Description: Protocol 1: Mice received 3-day pretreatment with: 1) SIT (300 mg/kg per day); 2) PIO (5 mg/kg per day); 3) SIT+PIO; or water alone (control). Drugs were suspended in water and administered by oral gavage once daily. […] One hour after injection, mice underwent coronary artery ligation for 30 minutes followed by 4-hour reperfusion, or mice were euthanized under anesthesia and hearts were explanted without being subjected to ischemia.

COX2 = assay: Myocardial COX2 activity, mouse; type: in vivo; settings: for COX2 activity: mice, 3-day pretreatment, words
Description: as §1, §2

[1] = test system: coronary artery ligation for 30 minutes followed by 4-hour reperfusion; assay: Mouse coronary artery ligation/reperfusion infarct size; type: in vivo; settings: for IS, expressed as a percent of the left ventricle or a percent of the area at risk: words
Description: as §1
Protocol 2: Mice received 14-day pretreatment with: 1) SIT (300 mg/kg per day); 2) PIO (5 mg/kg per day); 3) SIT+PIO; or water alone (control), as above. Mice underwent coronary artery ligation for 30 minutes followed by 4-hour reperfusion. […] The chest was opened and the left coronary artery was encircled with a suture and ligated for 30 minutes. Ischemia was verified by regional dysfunction and discoloration of the ischemic zone.
Hearts were excised and the left ventricle was sliced transversely into 6 sections. Slices were incubated for 10 minutes at 37 C in 1% buffered (pH=7.4) 2,3,5-triphenyl tetrazolium-chloride (TTC), fixed in a 10% formaldehyde and photographed in order to identify the AR (uncolored by the blue dye), the IS (unstained by TTC), and the non ischemic zones (colored by blue dye). The area of AR and IS in each slice were determined by planimetry, converted into percentages of the whole for each slice, and multiplied by the weight of the slice. The results were summed to obtain the weight of the myocardial AR and IS (38, 39).

6-keto-PGF1α = assay: Myocardial 6-keto-PGF1α levels, mouse; type: in vivo
Description: as §1
(§3) Myocardial samples of the anterior wall of the left ventricle were homogenized in cold PBS (pH 7.4), and centrifuged. The supernatants were collected and stored on ice. […] Each myocardial sample was tested in triplicate (the first without an inhibitor; the second with DuP-697, a specific COX2 inhibitor; and the third with Sc560, a specific COX1 inhibitor. COX1 activity was calculated as the difference between total COX activity in the sample without an inhibitor and the sample with Sc560, and COX2 activity as the difference between total COX activity in the sample without an inhibitor and the sample with DuP-697.

CREB = assay: Immunoblotting of myocardial CREB, mouse; type: in vivo; settings: IR
Description: as §1
(§4) Myocardial samples from the risk zone of the anterior wall of the left ventricular wall exposed to ischemia-reperfusion (IR), or from the anterior wall of control hearts not exposed to ischemia were homogenized in lysis buffer (in mMol): 25 Tris.HCl (pH 7.4), 0.5 EDTA, 0.5 EGTA, 1 phenylmethylsulfonyl 193 fluoride, 1 dithiothreitol, 25 NaF, 1 Na3VO4, 1% Triton X-100, 2% SDS and 1% 194 protease inhibitor cocktail. The lysate was centrifuged at 10,000 g for 15 min at 4° C. The resulting supernatants were collected. Protein (50 μg) was fractionated by SDS-PAGE (4%-20% polyacrylamide gels) and transferred to PVDF membranes (Millipore, Bedford, Mass.). The membranes were incubated overnight at […] with primary antibodies. Bound antibodies were detected using the chemiluminescent substrate (NEN Life Science Products, Boston, Mass.). The protein signals were quantified 200 with an image-scanning densitometer, and the strength of each 201 protein signal was normalized to the corresponding β-actin signal. Data are expressed as percent of the expression in the 202 control group.

15dPGJ2 = assay: Myocardial 15dPGJ2 levels, mouse; type: in vivo
Description: as §1, §3

eNOS = assay: Immunoblotting of myocardial eNOS, mouse; type: in vivo
Description: as §1, §4

cAMP = assay: Myocardial cAMP levels, mouse; type: in vivo; settings: for myocardial cAMP levels: mice, 3-day pretreatment, hearts not subjected to ischemia, words
Description: as §1
Myocardial samples from the anterior wall of the left ventricle of hearts that were not subjected to ischemia were homogenize in 1 ml cold extraction buffer [20 mM Tris-HCl (pH7.4), 0.5 mM EDTA, 0.5 mM EGTA, 10 mM β-mercaptoethanol, 1 mM phenylmethylsulfonyl fluoride, 0.1 mM dithiothreitol (DTT), 1 μg/ml leupeptin, 1 μg/ml aprotinin, 0.1% TritonX-100], centrifuged at 14,000×g for 15 min at 4° C., and the supernatants were collected. cAMP levels and PKA activity were measured using assay kits according to the manufacturer's instructions.

[2] = cited from earlier work
[3] = test system: middle cerebral artery occlusion; settings: rat; 2 h occlusion, 24 h reperfusion; oral cilostazol 30 mg/kg, aspirin 300 mg/kg, clopidogrel 30 mg/kg; cited from earlier work
[4] = H-89 20 mg/kg i.v. after 3-day PIO
[5] = H-89 20 mg/kg i.v. after 3-day SIT
[6] = Protocol 1: mice, 3-day pretreatment (SIT 300 mg/kg per day, PIO 5 mg/kg per day), H-89 20 mg/kg i.v. alone
[7] = H-89 20 mg/kg i.v. after 3-day PIO, IR
[8] = H-89 20 mg/kg i.v. after 3-day SIT, IR
[9] = mice, 3-day pretreatment, words
[10] = mice, 3-day pretreatment, IR-induced increase, immunoblot, words
[11] = 50 patients, primary stenting for ST elevation acute myocardial infarction, cilostazol 100 mg BID versus aspirin alone

## O=S(=O)(NCCNC/C=C/c1ccc(Br)cc1)c1cccc2cnccc12 [H-89]
cPLA2; [4]
  cPLA2 activity: H-89 on the effect of PIO: did not block the effect of PIO
cPLA2; [5]
  cPLA2 activity: H-89 in combination with SIT: no effect on cPLA2 activity
cPLA2
  cPLA2 activity: no effect on cPLA2 activity
15-epi-lipoxinA4; [4]
  15-epi-lipoxinA4 levels: H-89 on the effect of PIO: completely blocked the effect of both PIO and SIT
15-epi-lipoxinA4; [5]
  15-epi-lipoxinA4 levels: H-89 on the effect of SIT: completely blocked the effect of both PIO and SIT
Protein Kinase A (PKA); [4]
  PKA activity: H-89 on the PIO induced increase: completely blocked
Protein Kinase A (PKA); [5]
  PKA activity: H-89 on the SIT induced increase: completely blocked
COX2; [4]
  COX2 activity: H-89 on the PIO induced increase: did not block the PIO induced increase
COX2; [5]
  COX2 activity: H-89 in combination with SIT: no effect on COX2 activity
COX2
  COX2 activity: no effect on COX2 activity
[1]; [6]
  IS, expressed as a percent of the left ventricle or a percent of the area at risk: no effect on IS
[1]; Protocol 1, H-89 20 mg/kg i.v. one hour before ligation after 3-day PIO
  IS: effect of H-89 on the effect of PIO: only partially blocked the effect of PIO
[1]; Protocol 1, H-89 20 mg/kg i.v. one hour before ligation after 3-day SIT
  IS: effect of H-89 on the effect of SIT: completely blocked the effect of SIT
6-keto-PGF1α; [4]
  6-keto-PGF1α levels: H-89 on the effect of PIO: did not block the effect of PIO
CREB; [4]
  levels of P-CREB: H-89 on the effect of PIO: blocked this effect of SIT and PIO
CREB; [5]
  levels of P-CREB: H-89 on the effect of SIT: blocked this effect of SIT and PIO
15dPGJ2; [4]
  15dPGJ2 levels: H-89 on the effect of PIO: did not block the effect of PIO
eNOS; [7]
  Ser-633 P-eNOS levels: H-89 on the effect of PIO: attenuated this increase
  Ser-1177 P-eNOS levels: H-89 on the effect of PIO: attenuated the effects of both SIT and PIO
eNOS; [8]
  Ser-633 P-eNOS levels: H-89 on the effect of SIT: attenuated this increase
  Ser-1177 P-eNOS levels: H-89 on the effect of SIT: attenuated the effects of both SIT and PIO
cAMP; [5]
  myocardial cAMP levels: H-89 on the SIT effect: did not block the SIT effect
cAMP
  myocardial cAMP levels: no effect on cAMP levels

## N[C@@H](CC(=O)N1CCn2c(nnc2C(F)(F)F)C1)Cc1cc(F)c(F)cc1F [SIT, sitagliptin phosphate]
cPLA2
  cPLA2 activity: but not SIT, augmented cPLA2 activity
15-epi-lipoxinA4; [9]
  15-epi-lipoxinA4 levels: significantly increased
Protein Kinase A (PKA); mice, 3-day pretreatment, hearts not subjected to ischemia, words
  myocardial PKA activity: augmented PKA activity
COX2
  COX2 activity: no effect on COX2 activity
[1]; [6]
  IS, expressed as a percent of the left ventricle or a percent of the area at risk: significantly smaller
[1]; Protocol 2: mice, 14-day pretreatment (SIT 300 mg/kg per day, PIO 5 mg/kg per day)
  IS, expressed as a percent of the left ventricle or a percent of the area at risk: significantly smaller
6-keto-PGF1α; [9]
  6-keto-PGF1α levels: no effect
CREB; mice, 3-day pretreatment, immunoblot, words
  total CREB levels: did not affect total CREB levels
CREB; mice, 3-day pretreatment, versus control no IR or control IR, words
  levels of P-CREB: significantly higher
15dPGJ2; [9]
  15dPGJ2 levels: no effect
eNOS; [10]
  Ser-633 P-eNOS levels: augmented this increase
  Ser-1177 P-eNOS levels: augmented this increase
eNOS; mice, 3-day pretreatment, ischemia-reperfusion (IR), immunoblot, words
  total eNOS levels: no effect on total eNOS levels
cAMP
  myocardial cAMP levels: significant increase

## CC(=O)Oc1ccccc1C(=O)O [aspirin]
[2]; [11]
  6-month restenosis rate: 20%
  target lesion revascularization: 16%
[2]; 70 patients, Palmaz-Schatz stenting, cilostazol 200 mg/d, aspirin 81 mg/d
  in-stent stenosis: 26.8%
[3]
  brain infarct size: but not aspirin (300 mg/kg) or clopidogrel (30 mg/kg) reduced brain infarct size

## COC(=O)[C@H](c1ccccc1Cl)N1CCc2sccc2C1 [clopidogrel]
[3]
  brain infarct size: but not aspirin (300 mg/kg) or clopidogrel (30 mg/kg) reduced brain infarct size
